Data taken from patent US20090011442A1, “TB diagnostics based on mycobacterium tuberculosis excretory secretory antigens and their specific immunoglobulins” (priority 2007, published 2009).
Where two headings read alike, the source gives them in different places.

How the values were obtained:
[1] = tested on: mycobacterial serine protease (Seva TB ES-31); format: biochemical, Mycobacterium tuberculosis H37Ra
[2] = tested on: M. tb H37Ra bacilli; assay: microbe, parasite or virus in culture; format: cell-based, Mycobacterium tuberculosis H37Ra
[3] = Mycobacterium tuberculosis, H37RA, read-out: % Inhibition on culture

SMILES	Inhibition (%) [1] [%]	Residual activity (%) [1] [%]	serine protease enzyme activity, effect in words [1]	% Inhibition of Serine protease [1] [%]	Effect on H37Ra culture (LJ slant/Sautons' medium) [2]	bacillary growth on LJ slant and in Sautons' broth, effect in words [2]	further results
O=S(=O)(F)Cc1ccccc1 [Phenyl methyl sulphonyl fluoride (PMSF), Phenyl methyl sulphonyl fluoride]	80	19.6 ± 0.2	inhibited	–	–	–	% Inhibition on culture ([2]; 20 µM): 72%
NNC(=O)c1ccncc1 [INH, isoniazid]	–	–	inhibited	85	No Growth	inhibition of bacillary growth	inhibition of serine protease activity [1]: 85%
c1cnc2c(c1)ccc1cccnc12 [1,10 Phenanthroline]	78	22.4 ± 0.47	inhibited	–	–	–	inhibition at 10 µM [2, 3]: 81%
O=c1oc(Cl)c(Cl)c2ccccc12 [3,4-Dichloroisocoumarin]	–	–	inhibited	–	–	–	Inhibition (%) ([1]; 10 µM): 90%; Residual activity (%) ([1]; 10 µM): 9.84 ± 0.07%; inhibition at 0.2 µM [2, 3]: 85%
NC(=O)c1cnccn1 [PZA]	–	–	–	0	–	–	–
[H]/N=C(/N)N[C@H]1[C@H](O)[C@@H](O)[C@H](O[C@@H]2O[C@@H](C)[C@](O)(C=O)[C@H]2O[C@@H]2O[C@@H](CO)[C@H](O)[C@@H](O)[C@@H]2NC)[C@@H](N/C(N)=N\[H])[C@@H]1O [SM, streptomycin]	–	–	inhibited	30	No Growth	inhibition of bacillary growth	–
Cl.NCCc1ccc(S(=O)(=O)F)cc1 [Pefabloc]	92	7.56 ± 0.07	inhibited	–	–	–	% Inhibition on culture ([2]; 10 µM): 88%
O=C(O)CN(CCN(CC(=O)O)CC(=O)O)CC(=O)O [Ethylene diamine tetracetic acid (EDTA), Ethylene diamine tetracetic acid]	65	35.3 ± 0.89	inhibited	–	–	–	–
CC[C@@H](CO)NCCN[C@@H](CC)CO [EMB, ethambutol]	–	–	inhibited	70	No Growth	inhibition of bacillary growth	–
